Test results as given in patent US20230253066A1, “DESIGNED PROTEINS FOR LIGAND BINDING” (The Regents of the University of California, priority 2020, published 2023).

Test system: ABLE
Experiment: Fluorescence anisotropy ligand competition on ABLE (displacement of apixaban-peg-FITC)
Assay type: binding
Procedure: We performed fluorescence anisotropy experiments (54, 55) of ABLE and LABLE using a FITC fluorophore conjugated to apixaban as the fluorescent probe (FIGS. 512A-512D and Scheme 1). We serially diluted a concentrated protein solution containing 25 nM Apx-peg-FITC, holding constant the concentration of Apx-peg-FITC. Parallel and perpendicularly polarized emission at 528 nm (10 nm slit width, 510 nm long pass filter) were integrated for 10 seconds after 485 nm (5 nm slit width) excitation of the FITC fluorophore of Apx-peg-FITC. The data were fit to a single-site binding model (Equation 2, with N=1) (FIG. S12B). We performed ligand competition experiments (54, 55) by adding aliquots of a concentrated ligand stock in DMSO into an approximately 50% bound complex of protein and Apx-peg-FITC (25 nM). The decrease in anisotropy as a function of competing ligand was fit to a competitive binding model (54, 55) (FIG. 4D and FIG. S12C and FIG. S12D). Because effects of DMSO on the anisotropy of bound ABLE/Apx-peg-FITC complex become more pronounced at high concentrations of DMSO (>4%), we fit only the initial data points at low DMSO concentration (% DMSO <2%, FIG. 4D). […] DMSO may have a minor effect on competitive binding with weaker competitors (i.e., apixabanCOO^− and rivaroxaban), where high concentrations of competitor are needed to decrease anisotropy. As such, the reported dissociation constants of these weaker competitors can be viewed as a lower limit to the KD. Fluorescence polarization competition with apixaban as competitor gives a KD of 7 (±1) μM for the apixaban/ABLE complex (FIG. 4D), which agrees with that of the more precise spectral titration [KD=5 (±1) μM]. Binding experiments were performed at least twice to confirm reproducibility, and the reported errors correspond to the uncertainty in the fit parameters.

| Structure (SMILES) | binding to ABLE (in words) (competition with apixaban-peg-FITC) | Kd (ABLE 20 μM, apixaban-peg-FITC 25 nM, 50 mM NaPi, 100 mM NaCl, pH 7.4, fit of initial points at DMSO <2%, KD of weaker competitors viewed as lower limit, read-out: KD of competing ligand for ABLE, competitive binding model) [µM] | fold tighter binding to ABLE than rivaroxaban (fluorescence polarization competition, FIG. 4D) [fold] |
| --- | --- | --- | --- |
| O=C(NC[C@H]1CN(c2ccc(N3CCOCC3=O)cc2)C(=O)O1)c1ccc(Cl)s1 [rivaroxaban] | only very weak binding | – | – |
| COc1ccc(-n2nc(C(N)=O)c3c2C(=O)N(c2ccc(N4CCCCC4=O)cc2)CC3)cc1 [apixaban] | – | 7 | 20 |
